Assay results published in US20250032651A1, “[177LU] LUTETIUM-PSMA I&T COMPOSITION AND DOSIMETRY, KIT, METHOD OF MAKING, AND METHOD OF USING THEREOF” (Curium US LLC, priority 2022, published 2025).
Where “and” joins values, the source holds several entries; their conditions need not be identical. Equal values may be shown once.

Columns and labels:
[1] = Batch release QC / patient dose batch data; assay type: physicochemical; conditions: patient dose batches
Description: In another embodiment, the radioactivity is measured in a dose calibrator. The radioactive amount of [^177Lu]Lu-PSMA I&T is determined when the dose is dispensed.
In one embodiment, bacterial endotoxin content is determined for each batch before release using a PTS-tester (Ph Eur method D) and sterility is determined according to Ph Eur.
The specifications listed were used as release parameters except for sterility testing. Sterility was tested on all batches post-release.

[2] = Radiochemical purity of ^177Lu-PSMA I&T by HPLC in different formulation compositions, hours post EOS (Example 3); assay type: physicochemical
Description: Product formulation details are described in Table 6.
Radiochemical purity of each solution was followed by HPLC up to 71-93 hours post-radiolabeling.

[3] = Biodistribution: SPECT/CT time-activity curves (fraction of injected activity), whole-body half-lives; assay type: in vivo, human; conditions: Cycle 1
Description: This Example presents the biodistribution, dosimetry, and pharmacokinetics (PK) results of a PK/Dosimetry sub-study performed as part of a Phase III trial. Twenty-seven (27) patients were administered a target activity of 7.4±10% GBq of ^177Lu-PSMA-I&T and underwent single photon emission computed tomography (SPECT)/computed tomography (CT) imaging at four timepoints (4 h, 24 h, 48 h, and 168 h). Image data was analysed to compute time-activity curves (TACs) and subsequently time-integrated activity coefficients (TIACs) in each organ of interest and in organs showing appreciable and meaningful ^177Lu-PSMA-I&T activity. Organ Level Internal Dose Assessment (OLINDA 2.2.3) was used to compute organ and whole body absorbed radiation doses for each patient.
All participating sites underwent a rigorous site setup process during which all dose calibrators, scanners, and gamma counters used in the sub-study were calibrated. Sites were allowed to enroll patients in the sub-study only after the completion and approval of all site setup processes by Invicro. Patients underwent SPECT/CT imaging, with anatomical coverage typically extending from the salivary glands to the pelvis, following the administration of a targeted 7.4±10% GBq of ^177Lu-PSMA-I&T at cycle 1. SPECT/CT imaging was performed at four timepoints: 4 h, 24 h, 48 h, and 168 h post-injection. Additionally, a subset of patients imaged at Cycle 1 (16 out of 27), were also imaged at Cycle 3 (Table 2).
Volume of interest (VOI) (kidneys, bladder, liver, lumbar vertebrae L2-L4, lacrimal glands, salivary glands [parotid and submandibular glands], and whole body) were delineated on each dataset by a trained image analyst. […] Organs were segmented either by drawing the entire contour of the organ, or by placing a sphere in a representative region of the organ and then multiplying by the organ's effective mass (based on patient's height and weight). Segmentation methods for each organ are specified in Table 3 and were consistently applied to each patient.
Clearance of the radiopharmaceutical was derived from a data-appropriate fit of each organ's TAC. Depending on the TAC's shape, the data was fitted with the sum of one, two, or three exponentials, or using a rise and fall model. Fitting was performed with in-house Python software. TIACs were calculated through analytical integration of the curve fit extrapolated to infinity. […] A whole-body TAC was derived from delineating the imaged body. The remainder activity was determined by subtracting the cumulative organ TIACs from the whole body TIAC.
Note: the time-activity curves in these figures are not decay-corrected to time of injection.
The whole-body time-activity curves were fitted with bi-exponential equation and the two components were used for the distribution and elimination half-life.

[4] = bi-exponential fit of whole-body time-activity curves, excluding patient 42-030

For O=C([O-])CC[C@H](NC(=O)N[C@@H](CCCCNC(=O)CCCCCCC(=O)NCCCC[C@@H](NC(=O)[C@@H](Cc1ccccc1)NC(=O)[C@@H](Cc1ccc(O)c(I)c1)NC(=O)CC[C@H](C(=O)[O-])N1CCN(CC(=O)[O-])CCN(CC(=O)[O-])CCN(CC(=O)[O-])CC1)C(=O)[O-])C(=O)[O-])C(=O)[O-].[177Lu+3].[H+].[H+].[H+].[H+].[H+] [Lu-177 PSMA I&T], the “Measured PSMA Sum” value [1] was 5.0 µg/mL and the “Theoretical PSMA Sum” value [1] was 5.9 µg/mL and 6.4 µg/mL.
With O=C([O-])CC[C@H](NC(=O)N[C@@H](CCCCNC(=O)CCCCCCC(=O)NCCCC[C@@H](NC(=O)[C@@H](Cc1ccccc1)NC(=O)[C@@H](Cc1ccc(O)c(I)c1)NC(=O)CC[C@H](C(=O)[O-])N1CCN(CC(=O)[O-])CCN(CC(=O)[O-])CCN(CC(=O)[O-])CC1)C(=O)[O-])C(=O)[O-])C(=O)[O-].[177Lu+3].[H+].[H+].[H+].[H+].[H+] [^177Lu-PSMA I&T, (3S,7S,26R,29R,32R,37R)-29-benzyl-32-(4-hydroxy-3-iodobenzyl)-5,13,20,28,31,34-hexaoxo-37-(4,7,10-tris(carboxymethyl)-1,4,7,10-tetraazacyclododecan-1-yl)-4,6,12,21,27,30,33-heptaazaheptatriacontane-1,3,7,26,37-pentacarboxylic acid; lutetium-177 (III)] the “radiochemical purity as measured by HPLC” value ([2]; 10 ml high RAC formulation, 42.5 mg/ml ascorbic acid, 0 hours post EOS) was “at least 99%”, the “radiochemical purity as measured by HPLC” value ([2]; 10 ml high RAC formulation, 42.5 mg/ml ascorbic acid, 46 hours post EOS) was “at least 93.3%” and the “radiochemical purity as measured by HPLC” value ([2]; 20 ml low RAC formulation, 31 mg/ml ascorbic acid, 0 hours post EOS) was “at least 99.1%”. For the same compound, the “adequate radiochemical stability (radiochemical purity at least 95%)” value ([2]; about 31 mg/ml ascorbic acid, pH about 4.5, radioactivity concentration about 640 MBq/ml or below) was “four”, the “decrease in radiochemical purity over time at pH 4.5 compared with pH 7” value ([2]; high RAC solutions) was “two times slower” and the radiochemical purity ([2]; high radioactivity concentration, pH 4.5, 42.5 mg/ml ascorbic acid, 24 hours post EOS) was 98.0%. The radiochemical purity ([2]; high radioactivity concentration, pH 4.5, 42.5 mg/ml ascorbic acid, 46 hours post EOS) was 96.7%, the radiochemical purity ([2]; high radioactivity concentration, pH 4.5, 42.5 mg/ml ascorbic acid, 67 hours post EOS) was 95.3% and the radiochemical purity ([2]; high radioactivity concentration, pH 4.5, 42.5 mg/ml ascorbic acid, 71 hours post EOS) was 95.2%. For the same compound, the “radiochemical stability (radiochemical purity)” value ([2]; low RAC solution, pH 4.5, ascorbic acid 31 mg/ml, for 72 hours or longer) was “above 95.0%”, the radiochemical purity ([2]; low radioactivity concentration 579 MBq/ml, pH 4.5, 21 mg/ml ascorbic acid, 92 hours post EOS) was 96.0% and the radiochemical purity ([2]; low radioactivity concentration 588.5 MBq/ml, pH 4.5, 31 mg/ml ascorbic acid, 20 hours post EOS) was 98.7%. For the same compound, the radiochemical purity ([2]; low radioactivity concentration 588.5 MBq/ml, pH 4.5, 31 mg/ml ascorbic acid, 44 hours post EOS) was 98.0%, the radiochemical purity ([2]; low radioactivity concentration 588.5 MBq/ml, pH 4.5, 31 mg/ml ascorbic acid, 69 hours post EOS) was 97.4% and the radiochemical purity ([2]; low radioactivity concentration 588.5 MBq/ml, pH 4.5, 31 mg/ml ascorbic acid, 93 hours post EOS) was 97.0%. The radiochemical purity ([2]; low radioactivity concentration 626 MBq/ml, pH 5.0, 31 mg/ml ascorbic acid, 0 hours post EOS) was 99.2%, the radiochemical purity ([2]; low radioactivity concentration 626 MBq/ml, pH 5.0, 31 mg/ml ascorbic acid, 25 hours post EOS) was 98.4% and the radiochemical purity ([2]; low radioactivity concentration 626 MBq/ml, pH 5.0, 31 mg/ml ascorbic acid, 47 hours post EOS) was 97.3%. For the same compound, the “radiochemical stability (radiochemical purity)” value ([2]; lowered formulation radioactivity concentration, for 72 hours, experiments conducted previously) was “above 95.0%”, the “whole body mean activity retention at 4 h” value ([3]; averaged across patients excluding 42-030) was 44%±13% and the “whole-body distribution half-life (mean)” value [3, 4] was 2.16 ± 1.30 h. The “whole-body elimination half-life (mean)” value [3, 4] was 46.29 ± 23.83 h, the “whole body activity retention at 4 h, max” value ([3]; excluding 42-030) was 78% and the “whole body activity retention at 4 h, min” value ([3]; excluding 42-030) was 24%. The route of excretion ([3]; visible accumulation in the urinary bladder) was “primarily excreted through the urine”.
